Five compounds from US20170291890A1 (Epizyme, Inc., priority 2014, published 2017) can be followed below.

The target in the assay is T1, KDM4C (Homo sapiens, UniProt Q9H3R0).
T1 construct: N-terminal GST-tagged KDM4C^2-372 was purchased from BPS Biosciences; GST (N); purchased BPS Biosciences
T1 sequence (Q9H3R0 2-372): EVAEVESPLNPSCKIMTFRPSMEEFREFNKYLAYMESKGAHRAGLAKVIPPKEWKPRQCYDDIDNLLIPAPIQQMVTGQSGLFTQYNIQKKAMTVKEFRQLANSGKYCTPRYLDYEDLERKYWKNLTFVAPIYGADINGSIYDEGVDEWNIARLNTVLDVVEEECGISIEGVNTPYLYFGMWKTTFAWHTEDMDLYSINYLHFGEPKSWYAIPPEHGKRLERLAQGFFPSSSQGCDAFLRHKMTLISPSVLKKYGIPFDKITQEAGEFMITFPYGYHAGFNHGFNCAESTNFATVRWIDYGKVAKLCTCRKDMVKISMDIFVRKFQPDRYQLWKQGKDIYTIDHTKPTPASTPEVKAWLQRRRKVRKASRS
The experiment in a line: KDM4C Assay (SAMDI mass spectrometry demethylase assay). It counts as biochemical. To be noted: N-terminal GST-tagged KDM4C 2-372; class symbols; read-out: 4C IC50. In outline:
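GST-tagged KDM4C 2-372 (5 nM) preincubated 30 min with compound, then H3K9me3 biotinylated peptide (500 nM) and 2-oxoglutarate (15 μM) added in HEPES pH 8.0 with ascorbate, Fe(II), TCEP; 150 min at 25 °C, formic-acid quench. Conversion by SAMDI mass spectrometry from substrate/product peak AUC; IC50 from dose-response.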
For orientation: IC50 means the concentration that inhibits the measured activity by half. For `COC(=O)c1ccncc1Nc1cnn(C2CCN(C(C)C)CC2)c1C` [Compound 103, methyl 3-((1-(1-isopropylpiperidin-4-yl)-5-methyl-1H-pyrazol-4-yl)amino)isonicotinate], the IC50 fell in the range of 10000 to 100000 nM.
With `Cc1c(Nc2cnccc2C(=O)O)cnn1C1CCN(C(C)C)CC1` [Compound 104], the IC50 was 100 to 1000 nM.
For `Cc1nn(CCN(C)C)cc1Nc1cnccc1C(=O)O` [Compound 107, 3-(1-(2-(dimethylamino)ethyl)-3-methyl-1H-pyrazol-4-ylamino) isonicotinic acid], the IC50 lay in the range of 1000 to 10000 nM.
For `Cc1nn(C2CCCN(C)CC2)cc1Nc1cnccc1C(=O)O` (centres unmarked) [Compound 111, 3-(3-methyl-1-(1-methylazepan-4-yl)-1H-pyrazol-4-ylamino) isonicotinic acid], the IC50 lay within 100 to 1000 nM.
As to `Cc1c(Nc2cnccc2C(=O)O)cnn1C1CCCN(C)CC1` (centres unmarked) [Compound 112, 3-((5-methyl-1-(1-methylazepan-4-yl)-1H-pyrazol-4-yl)amino)isonicotinic acid], the IC50 was 100 to 1000 nM.
